Experimental data taken from US10995068B2, “Synthetic sphingolipid-like molecules, drugs, methods of their synthesis and methods of treatment” (The Regents of the University of California, priority 2015, dated 2021).
Read-outs that look alike come from different tables or passages of the source.

Tests used:
[1] = test system: DU145 prostate cancer cells; test: Cell Titer Glo proliferation assay in DU145; assay type: cell-based, human; conditions: Mean ± SEM, n ≥ 3, read-out: IC50 values in prostate cancer cell lines, DU145
Protocol: (§1) Previously presented compounds 1-4 (FIG. 23), compounds 5-8 (FIG. 28), and control compound FTY720 (FIG. 2) were used to treat the well-established PC3 and DU145 prostate cancer lines (FIG. 29 and Table 1). A Cell Titer Glo assay was performed to measure proliferation of the cancer lines.
(§2) Cell culture studies: Sup-B15 cells are maintained at 2-3 million/mL in RPMI 1640 (Mediatech) supplemented with 10% fetal calf serum (FCS, Sigma-Aldrich), 10 mM Hepes (Mediatech), 55 μM β-mercaptoethanol (Sigma-Aldrich), 2 mM L-glutamine (Mediatech), and antibiotics. All adherent cells are maintained at 70-80% confluence. Cell are cultured in the following media: PC3 & A549, Ham's F12K (Corning Cell Gro) supplemented with 10% FCS and antibiotics; DU145 cells, MEM (Corning Cell Gro) supplemented with 10% FCS, 1 mM sodium pyruvate (Mediatech), and antibiotics; SW620 & MDA-MB-231, DMEM (Corning Cell Gro) with 10% FCS, 1 mM sodium pyruvate (Mediatech), and antibiotics; Panc-1 cells, DMEM (Corning Cell Gro) supplemented with 10% FCS and antibiotics. All of the above cell lines are available from the ATCC.
(§3) Viability assays: Cell Titer Glo assays (Cell Titer Glo Luminescent Cell Viability Assay kit, cat #G7571, Promega Corporation) are performed in clear bottom 96-well black cell culture plates (cat #655090, Greiner Bio-One, NC, USA). After plating at 1,000 cells/well in volume of 100 μl, cells are left undisturbed for at least 24 h before drug addition. After 72 h, cells are prepared for analysis by adding 10 μl of 0.1% Triton-X100 in PBS with shaking for 1 min at room temperature (RT). Cell Titer-Glo cell lysis reagent (20 μl) is then added followed by 1 min of shaking and a 10 min incubation in the dark at RT. Luminescence is detected using an IVIS imaging system (IVIS Lumina II, Perkin Elmer, USA). […] IC50s are determined using GraphPad Prism (GraphPad Software, Inc, La Jolla, Calif.). SupB-15 viability was determined by flow cytometry. Cell Titer Glo assays were performed with the other cell lines.

[2] = test system: PC3 prostate cancer cells; test: Cell Titer Glo proliferation assay in PC3; assay type: cell-based, human; conditions: Cell Titer Glo, 72 h, Mean ± SEM, n ≥ 3, read-out: IC50 values in prostate cancer cell lines, PC3
Protocol: as §1, §2, §3

[3] = test system: PC3 prostate cancer cells; test: Cell viability by vital dye exclusion and flow cytometry in PC3; assay type: cell-based, human; conditions: Homo sapiens; vital dye exclusion (DAPI) and flow cytometry, 72 h
Protocol: Thus, to determine whether analogues in accordance with embodiments of the invention are cytotoxic, studies were conducted using vital dye exclusion and flow cytometry (Table 2).
as §3

[4] = target: T1, S1P receptor 1 (Homo sapiens, UniProt P21453); test: S1P receptor activation in CHO cells, S1P1; assay type: cell-based; conditions: CHO cells over-expressing human S1P1, 10 min stimulation, Western blot
T1 construct: expressed in transfected cells
From the text: (§4) Phosphorylation may have effects on S1P receptor activity that could cause bradycardia. Bradycardia, the dose-limiting toxicity that prevents the use of FTY720 in cancer patients, stems from FTY720-P's actions on S1P receptors 1 and 3. (Camm, J., et al. (2014) Am. Heart J. 168, 632-644; Cohen, J. A., Chun, J. (2011) Ann. Neurol. 69, 759-777; Sanna, M. G., et al. (2004) J. Biol. Chem. 279, 13839-13848; the disclosures of which are incorporated herein by reference). Phosphorylation by sphingosine kinase may make compounds competent to activate S1P receptors. FTY720, for example, when phosphorylated is known to activate S1P receptors 1 and 3. Because compound 5 could be phosphorylated, the activity of compound 5 and its phosphate 5-P (FIG. 28) on S1P receptors was evaluated (FIG. 32).
(§5) 51P1-5 activation: Chinese hamster ovary (CHO) cells stably over-expressing the different human 51P receptor subtypes are used. S1P1, S1P4 and S1P5 overexpressing CHO cells are cultured in medium containing alpha-MEM supplemented with 10% FBS, 50 μg/ml gentamycin and 0.5 mg/ml G418. S1P2 and S1P3 overexpressing CHO cells are cultured in RPMI containing 10% FBS, 50 μg/ml gentamycin and 0.5 mg/ml G418. Prior to stimulation, cells are rendered serum-free for 24 h. Stimulation is carried out for 10 min in serum-free DMEM containing 0.1 mg/ml of fatty-acid free BSA in the absence or presence of the various compounds or 51P. Protein lysates are prepared using a buffer containing (50 mM Tris pH 7.4, 150 mM NaCl, 10% glycerol, 1% Triton X-100, 2 mM EDTA, 2 mM EGTA, 40 mM β-glycerophosphate, 50 mM sodium fluoride, 10 mM sodium pyrophosphate, 2 mM dithiothreitol, 0.2 mM sodium orthovanadate). Cells are homogenized by one 5 sec burst in a MSE Ultrasonic Disintegrator, centrifuged and taken for protein determination. Equal amounts of protein are separated by SDS-PAGE (10% polyacrylamide gel), transferred to nitrocellulose membranes and subjected to Western blot analysis. Bands were stained using IRDye® secondary antibodies and visualized by the LICOR Odyssey® Fc Imaging system. Antibodies against phospho-Thr202/Tyr204-p42/p44-MAPK and phospho-Ser PKC substrate are from Cell Signaling, Frankfurt am Main, Germany. Polyclonal antisera against total p42 and total p44 were generated and characterized as previously described. (Huwiler, A.; Pfeilschifter, J. Br. J. Pharmacol. 1994, 113, 1455-1463; disclosure of which is incorporated herein by reference).

[5] = target: T2, S1P receptor 2 (Homo sapiens, UniProt O95136); test: S1P receptor activation in CHO cells, S1P2; assay type: cell-based; conditions: CHO cells over-expressing human S1P2
T2 construct: expressed in transfected cells
From the text: as §4, §5

[6] = Lymphocyte sequestration in mice; assay type: in vivo, C57BL6 mice; conditions: 10 mg/kg intraperitoneally, blood after 12 h, compared to saline
From the text: (§6) In more exemplary embodiments, compounds 5 and 5-P were further examined for their ability to activate multiple S1P receptors in vivo. In particular, mouse heart rate and lymphocyte sequestration were examined. Mouse heart rate decreases causing bradycardia when S1P receptor 3 is activated while in humans this effect may be mediated by S1P receptor 1. In both mice and humans, lymphocytes are sequestered when the S1P receptor 1 is activated.
Lymphocyte sequestration: Female 8-24 week old C57BL6 mice are injected intraperitoneally with vehicle (0.9% saline or 20% acidified DMSO in 0.9% saline), 10 mg/kg FTY720, FTY720-phosphate, 5, or 5-P. After 12 h, blood is collected from the retro-orbital sinus under ketamine/xylazine anesthesia. 10 μL of whole blood is added to 190 μL of ACK red blood cell lysis buffer, incubated at room temperature for 3-5 minutes […], and the white blood cells recovered by centrifugation. Nucleated cells (Hoechst33342 positive) are counted using a hemocytometer to obtain the white blood cell count. Separately, 50 μL of whole blood is added to 1 mL of ACK red blood cell lysis buffer and incubated for 3-5 minutes at room temperature. Cells are washed with FACS wash (2% FCS in PBS with 0.05% NaN3) and red blood cell lysis repeated. Tubes are decanted and resuspended in 100 μL of FACS block (10% FCS in PBS with 0.05% NaN3) with directly conjugated antibodies recognizing B220, CD4, or CD8 (all from Biolegend, San Diego) for 30 min on ice. Cells are analyzed on a BD LSR II flow cytometer; the analysis is restricted to live cells (DAPI negative). These experiments are performed in accordance with all national or local guidelines and regulations and are approved by the UCI Institutional Animal Care and Use Committee.

[7] = Heart rate by ECG telemetry in mice; assay type: in vivo, C57BL/6 mice; conditions: single dose 10 mg/kg intraperitoneally
From the text: as §6
As shown in the telemetry readings detailed in FIG. 36, FTY720 (B) slowed heart rate comparison to compound 5 (C) and the control (A, saline). As shown in A, after administering saline, normal sinus rhythm with clearly discernible P waves, representing atrial depolarization, and QRS complexes, representing ventricular depolarization, at regular intervals is observed. The heart rate in this tracing was approximately 600 beats per minute (BPM). […] Finally, as shown in C, for exemplary embodiment compound 5, similar to the saline injection, normal sinus rhythm with well-defined and consistent P waves and QRS complexes were present following injection. The heart rate in this tracing was approximately 600 BPM, similar to saline.
Heart rate: C57BL/6 mice are surgically implanted with DSI TA-ETAF20 electrocardiographic telemetry devices (Data Sciences International, St. Paul, Minn.). The electrocardiographic data is collected and recorded using the PhysioTel telemetry system and Dataquest A.R.T 4.0 software (DSI). The telemetry device is implanted in the mouse's abdominal cavity with biopotential leads sutured in place in the chest wall. Buprenorphine (0.05 mg/kg) is administered every 12 h after surgery for pain management and enrofloxacin (3 mg/kg) is administered 2× per day for 7 days post-surgery as an antibiotic. Mice are permitted two weeks recovery after surgery before initiation of baseline telemetry recordings. Heart rate is calculated from ECG data taken in the freely moving, conscious mice. Mice are divided into two groups of 3 mice and treated intraperitoneally with a single dose of vehicle (0.9% saline or 20% acidified DMSO in 0.9% saline), 10 mg/kg FTY720, FTY720-Phosphate, 5, or 5-P and heart rate monitored continuously for 10 h. Mice are rested for two weeks at which point the experiment is repeated with the mice assigned to the alternate group. These experiments are performed in accordance with all national or local guidelines and regulations and were approved by the UCI Institutional Animal Care and Use Committee.

[8] = target: T3, S1P receptor 5 (Homo sapiens, UniProt Q9H228); test: S1P receptor activation in CHO cells, S1P5; assay type: cell-based; conditions: CHO cells over-expressing human S1P5
T3 construct: expressed in transfected cells
From the text: as §4, §5

[9] = target: T4, S1P receptor 3 (Homo sapiens, UniProt Q99500); test: S1P receptor activation in CHO cells, S1P3; assay type: cell-based; conditions: CHO cells over-expressing human S1P3
T4 construct: expressed in transfected cells
From the text: as §4, §5

[10] = target: T5, S1P receptor 4 (Homo sapiens, UniProt O95977); test: S1P receptor activation in CHO cells, S1P4; assay type: cell-based; conditions: CHO cells over-expressing human S1P4
T5 construct: expressed in transfected cells
T5 sequence (O95977 1-384): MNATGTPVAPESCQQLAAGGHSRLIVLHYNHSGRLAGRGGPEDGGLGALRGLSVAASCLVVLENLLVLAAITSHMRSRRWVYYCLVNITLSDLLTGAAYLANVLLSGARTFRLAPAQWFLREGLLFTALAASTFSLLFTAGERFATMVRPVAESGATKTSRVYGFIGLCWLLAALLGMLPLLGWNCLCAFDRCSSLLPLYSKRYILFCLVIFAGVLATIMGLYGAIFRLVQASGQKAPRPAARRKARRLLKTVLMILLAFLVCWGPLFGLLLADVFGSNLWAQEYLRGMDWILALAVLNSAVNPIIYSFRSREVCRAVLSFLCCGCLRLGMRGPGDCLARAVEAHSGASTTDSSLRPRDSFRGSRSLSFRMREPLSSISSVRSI
From the text: as §4, §5

T1 sequence (P21453 whole entry): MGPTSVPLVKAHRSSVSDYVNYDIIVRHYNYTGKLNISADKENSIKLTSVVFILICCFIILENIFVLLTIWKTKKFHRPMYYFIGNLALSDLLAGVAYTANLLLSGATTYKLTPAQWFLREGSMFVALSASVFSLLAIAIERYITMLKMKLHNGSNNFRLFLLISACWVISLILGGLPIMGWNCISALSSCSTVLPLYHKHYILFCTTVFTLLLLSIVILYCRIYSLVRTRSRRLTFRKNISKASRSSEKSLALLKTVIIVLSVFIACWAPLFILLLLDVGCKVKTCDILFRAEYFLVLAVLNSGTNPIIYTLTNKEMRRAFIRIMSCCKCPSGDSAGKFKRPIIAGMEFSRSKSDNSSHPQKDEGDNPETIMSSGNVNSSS
T3 sequence (Q9H228 whole entry): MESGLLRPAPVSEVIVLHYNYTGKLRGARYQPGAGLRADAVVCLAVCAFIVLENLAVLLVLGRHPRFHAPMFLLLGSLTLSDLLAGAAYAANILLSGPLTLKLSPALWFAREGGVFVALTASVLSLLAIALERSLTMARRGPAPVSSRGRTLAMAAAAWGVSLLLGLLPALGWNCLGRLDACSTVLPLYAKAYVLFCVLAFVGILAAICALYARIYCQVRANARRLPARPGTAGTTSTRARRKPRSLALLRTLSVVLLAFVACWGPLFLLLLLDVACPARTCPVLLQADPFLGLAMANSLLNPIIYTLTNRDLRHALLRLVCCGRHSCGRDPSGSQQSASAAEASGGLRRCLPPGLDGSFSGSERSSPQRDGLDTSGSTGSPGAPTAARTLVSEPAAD
T4 sequence (Q99500 whole entry): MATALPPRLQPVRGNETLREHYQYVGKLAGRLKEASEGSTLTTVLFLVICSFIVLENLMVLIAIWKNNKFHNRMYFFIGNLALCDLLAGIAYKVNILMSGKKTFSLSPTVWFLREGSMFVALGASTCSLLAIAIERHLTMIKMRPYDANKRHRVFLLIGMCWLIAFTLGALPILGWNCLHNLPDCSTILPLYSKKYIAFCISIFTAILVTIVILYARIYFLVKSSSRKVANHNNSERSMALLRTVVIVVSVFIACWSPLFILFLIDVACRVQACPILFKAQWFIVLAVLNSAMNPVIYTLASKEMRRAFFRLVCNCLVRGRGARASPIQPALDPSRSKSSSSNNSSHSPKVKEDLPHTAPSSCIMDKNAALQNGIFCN
T2 sequence (O95136 whole entry): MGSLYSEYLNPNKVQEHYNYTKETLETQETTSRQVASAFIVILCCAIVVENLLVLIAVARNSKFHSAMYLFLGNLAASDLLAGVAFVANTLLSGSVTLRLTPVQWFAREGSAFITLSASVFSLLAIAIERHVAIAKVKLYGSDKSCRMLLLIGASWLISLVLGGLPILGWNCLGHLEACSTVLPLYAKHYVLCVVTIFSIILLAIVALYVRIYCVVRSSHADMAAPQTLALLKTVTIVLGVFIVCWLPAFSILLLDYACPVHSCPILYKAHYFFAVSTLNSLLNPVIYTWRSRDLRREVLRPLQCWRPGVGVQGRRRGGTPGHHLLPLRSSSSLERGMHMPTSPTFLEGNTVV

| IC50 ([1]; Homo sapiens, DU-145, 72 h) [µM] | IC50 ([2]; Homo sapiens) [µM] | IC50 [3] [µM] | Structure (SMILES) | activation of S1P receptor 1 [4] | activation of S1P receptor 2 [5] | lymphocyte sequestration [6] | effect on heart rate ([7]; compared to saline controls) | activation of S1P receptor 5 [8] | activation of S1P receptor 3 [9] | activation of S1P receptor 4 [10] | IC50 ([1]; 72 h) [µM] | IC50 [2] [µM] | decrease of heart rate ([7]; compared to saline vehicle) |
| --- | --- | --- | --- | --- | --- | --- | --- | --- | --- | --- | --- | --- | --- |
| 5.3 ± 0.2 | 4.9 ± 0.6 | 8.3 ± 0.2 | CCCCCCCCc1ccc([C@H]2C[C@H](CO)N[C@H]2CO)cc1 [Compound 3, (2R,3R,5R)-2,5-Bis(hydroxymethyl)-3-(4-octylphenyl)pyrrolidinium chloride] | – | – | – | – | – | – | – | – | – | – |
| – | – | – | CCCCCCCCc1ccc([C@H]2CCN[C@@H]2COP(=O)(O)O)cc1 [Compound 5-P, ((2S,3R)-3-(4-octylphenyl)pyrrolidin-1-ium-2-yl)Methyl hydrogen phosphate] | weakly activated | failed to activate | no significant effect | no significant effect | failed to activate | failed to activate | failed to activate | – | – | – |
| – | – | – | CCCCCCCCc1ccc([C@@H]2CCN[C@H]2C)cc1.Cl [Compound 12] | not able to activate | not able to activate | – | – | not able to activate | not able to activate | not able to activate | 5 ± 0.1 | 4.1 ± 0.4 | – |
| – | – | – | CCCCCCCCCCCCC/C=C/[C@@H](O)[C@@H](N)COP(=O)(O)O [Compound S1P, sphingosine-1 phosphate, reference compound] | activated | activated | – | – | activated | activated | activated | – | – | – |
| – | – | – | CCCCCCCCc1ccc(CC[C@](N)(CO)COP(=O)(O)O)cc1 [FTY720-P, reference compound] | – | – | significantly sequestered lymphocytes | – | – | – | – | – | – | approximately 50% |
